Experimental data from ChEMBL document CHEMBL4665820, “Discovery of VU6027459: A First-in-Class Selective and CNS Penetrant mGlu Positive Allosteric Modulator Tool Compound” (ACS Med Chem Lett, 2020).

Assays:
[1] = species on record: Rattus norvegicus; assay: Displacement of [3H]-Diltiazem from L-type calcium channel benzothiazepine binding site in rat brain at 10 uM incubated for 180 mins by scintillation counting analysis relative to control; assay type: tissue-based
[2] = biological target: Adenosine receptor A2a (Homo sapiens) (UniProt P29274); assay: Displacement of [3H]-CGS 21680 from human recombinant adenosine A2A receptor at 10 uM after 120 mins by scintillation counting analysis relative to control
Sequence of Adenosine receptor A2a (Homo sapiens) (P29274 whole entry): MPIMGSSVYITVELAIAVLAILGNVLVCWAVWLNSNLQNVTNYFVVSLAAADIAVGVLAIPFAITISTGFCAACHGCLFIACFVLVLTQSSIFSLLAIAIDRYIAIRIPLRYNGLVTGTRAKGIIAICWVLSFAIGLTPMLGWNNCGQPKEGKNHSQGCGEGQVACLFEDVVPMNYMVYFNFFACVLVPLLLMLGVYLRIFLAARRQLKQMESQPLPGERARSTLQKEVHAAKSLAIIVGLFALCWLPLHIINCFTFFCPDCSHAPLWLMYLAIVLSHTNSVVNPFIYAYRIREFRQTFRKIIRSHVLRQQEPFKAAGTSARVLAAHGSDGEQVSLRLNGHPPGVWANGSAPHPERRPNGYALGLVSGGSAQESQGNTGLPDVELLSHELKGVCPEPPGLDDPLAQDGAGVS

[3] = biological target: Metabotropic glutamate receptor 7 (Rattus norvegicus, UniProt P35400); assay: Positive allosteric modulation of rat mGlu7 receptor expressed in HEK293 cells co-expressing Gai5 assessed as potentiation of L-AP4-induced calcium mobilization preincubated for 140 secs and treated with EC20 L-AP4 for 125 secs and followed by subsequent addition of EC80 L-AP4 by Fluo-4-AM dye based fluorescence assay; assay type: functional, cell-based; conditions: read-out: EC50
Sequence of Metabotropic glutamate receptor 7 (P35400 whole entry): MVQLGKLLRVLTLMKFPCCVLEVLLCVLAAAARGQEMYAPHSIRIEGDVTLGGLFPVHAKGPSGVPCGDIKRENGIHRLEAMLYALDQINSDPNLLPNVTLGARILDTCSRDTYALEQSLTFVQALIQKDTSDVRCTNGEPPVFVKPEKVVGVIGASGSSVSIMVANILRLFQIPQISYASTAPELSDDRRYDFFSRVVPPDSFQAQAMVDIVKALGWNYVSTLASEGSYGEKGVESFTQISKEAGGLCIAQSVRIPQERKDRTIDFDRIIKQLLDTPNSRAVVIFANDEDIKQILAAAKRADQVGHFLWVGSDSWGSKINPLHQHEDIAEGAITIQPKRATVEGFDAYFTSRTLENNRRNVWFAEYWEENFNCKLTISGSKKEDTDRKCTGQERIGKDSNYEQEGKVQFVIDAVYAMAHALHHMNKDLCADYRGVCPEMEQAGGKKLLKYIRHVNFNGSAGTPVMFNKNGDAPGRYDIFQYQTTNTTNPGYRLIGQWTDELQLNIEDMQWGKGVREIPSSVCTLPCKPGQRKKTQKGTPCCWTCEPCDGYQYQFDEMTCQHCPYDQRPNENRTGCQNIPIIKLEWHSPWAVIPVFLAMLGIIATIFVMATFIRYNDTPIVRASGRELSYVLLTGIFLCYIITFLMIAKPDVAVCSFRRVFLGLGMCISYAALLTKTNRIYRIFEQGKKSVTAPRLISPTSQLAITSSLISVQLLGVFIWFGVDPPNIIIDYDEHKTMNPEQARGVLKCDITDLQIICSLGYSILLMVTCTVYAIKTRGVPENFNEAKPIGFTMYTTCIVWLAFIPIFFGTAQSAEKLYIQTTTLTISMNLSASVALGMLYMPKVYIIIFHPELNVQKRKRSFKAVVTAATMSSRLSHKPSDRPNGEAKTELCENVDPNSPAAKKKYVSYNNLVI

[4] = biological target: Metabotropic glutamate receptor 7 (Rattus norvegicus) (UniProt P35400); assay: Positive allosteric modulation of rat mGlu7 expressed in HEK293 cells co- expressing GIRK assessed as potentiation of L-AP4-induced thallium flux incubated for 140 sec by FluoZin2-AM dye based fluorescence analysis relative to maximal induction of L-AP4; assay type: cell-based; conditions: filed as positive allosteric modulator
Sequence of Metabotropic glutamate receptor 7 (Rattus norvegicus) (P35400 whole entry): as above

[5] = biological target: Beta-1 adrenergic receptor (Homo sapiens) (UniProt P08588); assay: Displacement of [3H](-)CGP 12177 from human beta1 adrenoceptor at 10 uM after 60 mins by scintillation counting analysis relative to control
[6] = biological target: Cannabinoid receptor 1 (Homo sapiens) (UniProt P21554); assay: Displacement of [3H]-SR141716A from human recombinant full length Cannabinoid CB1 receptor at 10 uM incubated for 60 mins by scintillation counting analysis relative to control
Sequence of Cannabinoid receptor 1 (Homo sapiens) (P21554 whole entry): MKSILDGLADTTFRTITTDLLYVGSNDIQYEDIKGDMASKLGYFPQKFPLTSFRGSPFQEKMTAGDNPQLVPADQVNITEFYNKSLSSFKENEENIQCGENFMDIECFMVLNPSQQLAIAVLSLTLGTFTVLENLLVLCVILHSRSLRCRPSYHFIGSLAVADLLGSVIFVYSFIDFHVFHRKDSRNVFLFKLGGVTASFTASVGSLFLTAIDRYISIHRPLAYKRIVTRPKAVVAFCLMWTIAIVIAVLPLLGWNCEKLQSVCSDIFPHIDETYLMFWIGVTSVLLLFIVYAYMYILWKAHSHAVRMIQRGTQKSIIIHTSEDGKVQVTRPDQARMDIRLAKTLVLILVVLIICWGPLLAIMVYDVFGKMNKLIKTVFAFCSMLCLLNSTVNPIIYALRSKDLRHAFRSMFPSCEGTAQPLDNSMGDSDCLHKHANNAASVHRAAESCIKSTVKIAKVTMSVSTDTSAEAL

[7] = biological target: D(3) dopamine receptor (Homo sapiens) (UniProt P35462); assay: Displacement of [3H]-methyl-spiperone from human recombinant Dopamine D3 receptor at 10 uM incubated for 60 mins by scintillation counting analysis relative to control
Sequence of D(3) dopamine receptor (Homo sapiens) (P35462 whole entry): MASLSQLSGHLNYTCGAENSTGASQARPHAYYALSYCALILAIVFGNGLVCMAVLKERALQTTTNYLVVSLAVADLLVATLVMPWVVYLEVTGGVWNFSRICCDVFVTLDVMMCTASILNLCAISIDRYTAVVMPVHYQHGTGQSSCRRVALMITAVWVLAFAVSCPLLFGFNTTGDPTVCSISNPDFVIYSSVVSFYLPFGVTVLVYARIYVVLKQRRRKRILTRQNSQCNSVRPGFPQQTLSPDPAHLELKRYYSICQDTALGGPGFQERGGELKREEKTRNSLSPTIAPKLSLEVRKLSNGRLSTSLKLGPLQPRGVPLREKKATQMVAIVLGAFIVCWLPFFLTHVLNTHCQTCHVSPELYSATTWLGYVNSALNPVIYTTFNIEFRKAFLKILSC

[8] = biological target: Gamma-aminobutyric acid type B receptor subunit 1 (Homo sapiens) (UniProt Q9UBS5); assay: Displacement of [3H]-CGP54626 from human recombinant GABAB1A channel at 10 uM incubated for 180 mins by scintillation counting analysis relative to control
[9] = biological target: Glucocorticoid receptor (Homo sapiens) (UniProt P04150); assay: Displacement of [3H]-Dexamethasone from human Glucocorticoid receptors at 10 uM incubated for 360 mins by scintillation counting analysis relative to control
Sequence of Glucocorticoid receptor (Homo sapiens) (P04150 whole entry): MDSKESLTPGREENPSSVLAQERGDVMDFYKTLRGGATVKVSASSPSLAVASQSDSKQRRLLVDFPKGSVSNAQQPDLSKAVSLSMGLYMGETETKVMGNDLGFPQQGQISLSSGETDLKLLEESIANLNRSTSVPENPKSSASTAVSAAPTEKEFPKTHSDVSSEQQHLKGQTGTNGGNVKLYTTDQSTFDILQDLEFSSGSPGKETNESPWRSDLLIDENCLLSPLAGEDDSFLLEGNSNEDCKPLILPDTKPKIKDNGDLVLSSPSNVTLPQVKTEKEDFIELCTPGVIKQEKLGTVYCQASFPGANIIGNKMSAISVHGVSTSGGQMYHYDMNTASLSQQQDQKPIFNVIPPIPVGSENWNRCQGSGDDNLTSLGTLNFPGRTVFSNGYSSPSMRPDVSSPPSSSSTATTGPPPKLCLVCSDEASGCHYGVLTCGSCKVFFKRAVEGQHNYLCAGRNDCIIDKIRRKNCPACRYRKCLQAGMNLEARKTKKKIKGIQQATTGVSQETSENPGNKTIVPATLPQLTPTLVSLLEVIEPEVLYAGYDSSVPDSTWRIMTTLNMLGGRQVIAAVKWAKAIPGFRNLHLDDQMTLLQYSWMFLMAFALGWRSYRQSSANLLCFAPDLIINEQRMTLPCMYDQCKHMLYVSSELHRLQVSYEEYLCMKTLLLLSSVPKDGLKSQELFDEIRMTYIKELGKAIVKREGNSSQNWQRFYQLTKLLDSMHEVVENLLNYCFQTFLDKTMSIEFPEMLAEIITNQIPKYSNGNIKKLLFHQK

[10] = biological target: Glutamate NMDA receptor (Rattus norvegicus) (UniProt P35439+Q00959+Q00960+Q00961+Q62645+Q8VHN2+Q9R1M7); assay: Displacement of [3H]-CGP39653 from NMDA glutamate receptor in rat at 10 uM incubated for 20 mins by scintillation counting analysis relative to control
[11] = species on record: Rattus norvegicus; assay: Displacement of [3H]-MDL105519 from NMDA glutamate receptor glycine binding site in rat at 10 uM incubated for 30 mins by scintillation counting analysis relative to control
[12] = species on record: Rattus norvegicus; assay: Displacement of [3H]-TCP from NMDA glutamate receptor phencyclidine binding site in rat at 10 uM incubated for 45 mins by scintillation counting analysis relative to control
[13] = biological target: Histamine H1 receptor (Homo sapiens) (UniProt P35367); assay: Displacement of [3H]pyrilamine from human recombinant histamine H1 receptor at 10 uM after 60 mins by scintillation counting analysis relative to control
[14] = species on record: Rattus norvegicus; assay: Displacement of [3H]-idazoxan from rat imidazoline I2 receptor at 10 uM incubated for 30 mins by scintillation counting analysis relative to control
[15] = biological target: Cysteinyl leukotriene receptor 1 (Homo sapiens) (UniProt Q9Y271); assay: Displacement of [3H]-LTD4 from human recombinant CysLT1 Leukotriene receptor at 10 uM incubated for 60 mins by scintillation counting analysis relative to control
[16] = biological target: Neuronal acetylcholine receptor; alpha3/beta4 (Homo sapiens) (UniProt P30926+P32297); assay: Displacement of [125I] epibatidine from human nicotinic acetylcholine receptor alpha3/beta4 at 10 uM incubated for 60 mins by scintillation counting analysis relative to control; assay type: protein-complex assay
[17] = biological target: Acetylcholine receptor subunit alpha (Homo sapiens) (UniProt P02708); assay: Displacement of [125I] alpha-Bungarotoxin from human nicotinic acetylcholine alpha 1 receptor at 10 uM incubated for 120 mins by radioligand binding assay relative to control
Sequence of Acetylcholine receptor subunit alpha (Homo sapiens) (P02708 whole entry): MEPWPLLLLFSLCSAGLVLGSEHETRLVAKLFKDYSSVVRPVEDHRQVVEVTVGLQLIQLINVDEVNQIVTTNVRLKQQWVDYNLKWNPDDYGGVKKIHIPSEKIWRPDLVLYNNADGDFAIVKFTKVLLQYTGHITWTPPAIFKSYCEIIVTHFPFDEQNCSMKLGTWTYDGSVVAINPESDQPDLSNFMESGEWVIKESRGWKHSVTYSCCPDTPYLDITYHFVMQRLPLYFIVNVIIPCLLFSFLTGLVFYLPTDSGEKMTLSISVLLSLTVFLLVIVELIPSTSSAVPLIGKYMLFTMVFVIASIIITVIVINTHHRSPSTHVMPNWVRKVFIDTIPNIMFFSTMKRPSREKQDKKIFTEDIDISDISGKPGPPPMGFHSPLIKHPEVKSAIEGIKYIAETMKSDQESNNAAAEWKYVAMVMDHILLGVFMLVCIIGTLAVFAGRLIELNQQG

[18] = biological target: Delta-type opioid receptor (Homo sapiens) (UniProt P41143); assay: Displacement of [3H]DADLE from human recombinant Delta opioid receptor at 10 uM after 60 mins by scintillation counting analysis relative to control
Sequence of Delta-type opioid receptor (Homo sapiens) (P41143 whole entry): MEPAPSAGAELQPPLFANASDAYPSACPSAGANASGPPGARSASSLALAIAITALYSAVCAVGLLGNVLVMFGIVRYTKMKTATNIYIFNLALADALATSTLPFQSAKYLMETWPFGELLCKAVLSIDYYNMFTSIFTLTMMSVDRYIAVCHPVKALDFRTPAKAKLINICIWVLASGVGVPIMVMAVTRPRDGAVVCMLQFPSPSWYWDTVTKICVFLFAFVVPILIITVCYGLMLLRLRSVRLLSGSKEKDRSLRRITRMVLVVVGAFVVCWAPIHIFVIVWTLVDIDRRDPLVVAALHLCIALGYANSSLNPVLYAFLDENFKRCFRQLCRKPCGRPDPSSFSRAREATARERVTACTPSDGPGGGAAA

[19] = biological target: Mu-type opioid receptor (Homo sapiens) (UniProt P35372); assay: Displacement of [3H]DAMGO from human recombinant mu receptor at 10 uM after 120 mins by scintillation counting analysis relative to control
Sequence of Mu-type opioid receptor (Homo sapiens) (P35372 whole entry): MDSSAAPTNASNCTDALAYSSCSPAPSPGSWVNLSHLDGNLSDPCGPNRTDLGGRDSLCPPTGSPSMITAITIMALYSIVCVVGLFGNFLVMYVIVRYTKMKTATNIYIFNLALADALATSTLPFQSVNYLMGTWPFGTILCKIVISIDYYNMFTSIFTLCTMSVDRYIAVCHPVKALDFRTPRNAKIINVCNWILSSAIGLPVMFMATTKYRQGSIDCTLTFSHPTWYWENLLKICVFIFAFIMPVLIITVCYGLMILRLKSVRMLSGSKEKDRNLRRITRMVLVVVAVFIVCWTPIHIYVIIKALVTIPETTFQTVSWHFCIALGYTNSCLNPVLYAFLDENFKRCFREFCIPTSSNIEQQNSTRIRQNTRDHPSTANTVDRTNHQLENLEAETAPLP

[20] = species on record: Mus musculus; assay: Displacement of [3H]-PDBu from mouse phorbol ester receptor at 10 uM incubated for 60 mins by scintillation counting analysis relative to control
[21] = tested on: Cricetinae; assay: Displacement of [3H]-Glyburide from hamster potassium channel at 10 uM incubated for 120 mins by scintillation counting analysis relative to control
[22] = biological target: P2X receptor (Rattus norvegicus) (UniProt P51579+P49653+P51578+Q64663+P47824+P51577+P49654); assay: Displacement of [3H]alpha, beta-methylene ATP from P2X receptor in rat urinary bladder at 10 uM incubated for 120 mins by scintillation counting analysis relative to control
[23] = species on record: Rattus norvegicus; assay: Displacement of [3H]-Rolipram from phosphodiesterases PDE4 rolipram binding site in rat at 10 uM incubated for 60 mins by radioligand binding assay relative to control
[24] = biological target: 5-hydroxytryptamine receptor 1A (Homo sapiens) (UniProt P08908); assay: Displacement of [3H]8-OH-DPAT from recombinant human 5-HT1A receptor at 10 uM after 60 mins by scintillation counting analysis relative to control
[25] = species on record: Rattus norvegicus; assay: Displacement of [3H]-Batrachotoxinin from rat sodium channel site 2 at 10 uM incubated for 60 mins by scintillation counting analysis relative to control
[26] = biological target: Substance-P receptor (Homo sapiens) (UniProt P25103); assay: Displacement of [125I]-Substance P LYS3 from human recombinant tachykinin NK1 receptor at 10 uM incubated for 30 mins by scintillation counting analysis relative to control
[27] = species on record: Rattus norvegicus; assay: Displacement of [125I]-Triiodothyronine from thyroid hormone receptors in rat at 10 uM incubated for 180 mins by scintillation counting analysis relative to control
[28] = species on record: Rattus norvegicus; assay: Displacement of [3H]-GABA in GABA transporter in rat brain membrane at 10 uM incubated for 30 mins by scintillation counting analysis elative to control; assay type: cell membranes
[29] = biological target: Sodium-dependent dopamine transporter (Homo sapiens, UniProt Q01959); assay: Displacement of […] from recombinant human Dopamine transporter after 120 mins by scintillation counting analysis; assay type: ADME
Sequence of Sodium-dependent dopamine transporter (Q01959 whole entry): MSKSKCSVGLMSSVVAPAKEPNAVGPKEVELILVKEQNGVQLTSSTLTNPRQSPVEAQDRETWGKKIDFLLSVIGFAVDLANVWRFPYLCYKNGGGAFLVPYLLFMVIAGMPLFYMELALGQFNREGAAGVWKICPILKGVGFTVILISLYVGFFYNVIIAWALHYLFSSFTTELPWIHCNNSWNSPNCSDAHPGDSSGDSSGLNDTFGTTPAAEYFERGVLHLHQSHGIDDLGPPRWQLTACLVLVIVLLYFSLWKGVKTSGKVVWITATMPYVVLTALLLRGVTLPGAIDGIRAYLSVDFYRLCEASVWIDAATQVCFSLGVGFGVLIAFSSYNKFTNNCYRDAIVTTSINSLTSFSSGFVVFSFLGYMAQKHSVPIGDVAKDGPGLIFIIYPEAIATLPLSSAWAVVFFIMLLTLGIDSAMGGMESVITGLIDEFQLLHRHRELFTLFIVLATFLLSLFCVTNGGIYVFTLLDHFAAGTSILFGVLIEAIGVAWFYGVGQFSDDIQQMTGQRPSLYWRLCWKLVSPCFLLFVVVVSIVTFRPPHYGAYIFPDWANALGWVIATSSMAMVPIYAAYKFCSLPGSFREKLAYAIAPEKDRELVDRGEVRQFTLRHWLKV

[30] = Fraction unbound in rat plasma at 5 uM incubated for 4 hrs by equilibrium dialysis based LC-MS/MS analysis; assay type: ADME, cell-free
[31] = Fraction unbound in mouse plasma at 5 uM incubated for 4 hrs by equilibrium dialysis based LC-MS/MS analysis; assay type: ADME, cell-free

In the case of `COc1cccc2c(N3CCN(c4ccccc4F)CC3)c(C#N)cnc12`, the inhibition [1] is reported as < 50%, the inhibition [2] is reported as < 50% and the EC50 [3] is reported as 1100 nM. For the same molecule, the Activity [4] was 51.3%, the inhibition [5] was < 50% and the inhibition [6] was < 50%. The inhibition [7] was < 50%, the inhibition [8] was < 50% and the inhibition [9] was < 50%. For the same molecule, the inhibition [10] was < 50%, the inhibition [11] was < 50% and the inhibition [12] was < 50%. For the same molecule, the inhibition [13] was < 50%, the inhibition [14] was < 50% and the inhibition [15] was < 50%. For the same molecule, the inhibition [16] was < 50%, the inhibition [17] was < 50% and the inhibition [18] was < 50%. The inhibition [19] was < 50%, the inhibition [20] was < 50% and the inhibition [21] was < 50%. The inhibition [22] was < 50%, the inhibition [23] was < 50% and the inhibition [24] was < 50%. For the same molecule, the inhibition [25] was < 50%, the inhibition [26] was < 50% and the inhibition [27] was < 50%. For the same molecule, the inhibition [28] was < 50%, the Ki [29] was 430 nM and the fraction unbound at 4 h, 5 µM [30] was 0.032. It also gave a fraction unbound at 4 h, 5 µM [31] of 0.051.
In the case of `COc1cc(F)cc2c(N3CCN(c4ccccc4F)CC3)c(C#N)cnc12`, the inhibition ([1]; tested as the 2H-labelled form) is reported as < 50%, the inhibition ([2]; tested as the 2H-labelled form) is reported as < 50% and the EC50 [3] is reported as 1400 nM. The Activity ([4]; tested as the 2H-labelled form) was 62.8%, the inhibition ([5]; tested as the 2H-labelled form) was < 50% and the inhibition ([6]; tested as the 2H-labelled form) was < 50%. For the same molecule, the inhibition ([7]; tested as the 2H-labelled form) was < 50%, the inhibition ([8]; tested as the 2H-labelled form) was < 50% and the inhibition ([9]; tested as the 2H-labelled form) was < 50%. The inhibition ([10]; tested as the 2H-labelled form) was < 50%, the inhibition ([11]; tested as the 2H-labelled form) was < 50% and the inhibition ([12]; tested as the 2H-labelled form) was < 50%. The inhibition ([13]; tested as the 2H-labelled form) was < 50%, the inhibition ([14]; tested as the 2H-labelled form) was < 50% and the inhibition ([15]; tested as the 2H-labelled form) was < 50%. The inhibition ([16]; tested as the 2H-labelled form) was < 50%, the inhibition ([17]; tested as the 2H-labelled form) was < 50% and the inhibition ([18]; tested as the 2H-labelled form) was < 50%. The inhibition ([19]; tested as the 2H-labelled form) was < 50%, the inhibition ([20]; tested as the 2H-labelled form) was < 50% and the inhibition ([21]; tested as the 2H-labelled form) was < 50%. The inhibition ([22]; tested as the 2H-labelled form) was < 50%, the inhibition ([23]; tested as the 2H-labelled form) was < 50% and the inhibition ([24]; tested as the 2H-labelled form) was < 50%. For the same molecule, the inhibition ([25]; tested as the 2H-labelled form) was < 50%, the inhibition ([26]; tested as the 2H-labelled form) was < 50% and the inhibition ([27]; tested as the 2H-labelled form) was < 50%. The inhibition ([28]; tested as the 2H-labelled form) was < 50%, the IC50 [29] was > 10 µM and the fraction unbound at 4 h, 5 µM [30] was 0.01. It also gave a fraction unbound at 4 h, 5 µM [31] of 0.012.
